≈ marks a conversion by molar mass, not a printed value. Calls of active or inactive are those of the source. No cut-off for these calls is given here.
Columns and labels:
Staphylococcus aureus = assay: Antimicrobial activity against Staphylococcus aureus ATCC 25923 after 18 to 20 hrs by macrobroth dilution method; format: functional
Pseudomonas aeruginosa = assay: Antimicrobial activity against Pseudomonas aeruginosa ATCC 27853 after 18 to 20 hrs by macrobroth dilution method; format: functional
Escherichia coli [1] = assay: Antimicrobial activity against Escherichia coli ATCC 25922 after 18 to 20 hrs by macrobroth dilution method; format: functional
[2] = Toxicity against human RBCs assessed as hemolysis at 100 uM after 1 hr by spectrophotometry; format: cell-based, Erythrocyte; conditions: red blood cells (RBCs), read-out: Activity
Escherichia coli [3] = assay: Induction of inner membrane permeabilization in Escherichia coli ML-35p at 1 uM measured every 2 mins by beta-galactosidase/ONPG hydrolysis assay; format: functional, organism-based
Escherichia coli [4] = assay: Induction of outer membrane permeabilization in Escherichia coli ML-35p at 1 uM measured every 2 mins by beta-lactamase/nitrocefin hydrolysis assay; format: functional, organism-based
Escherichia coli [5] = assay: Induction of outer membrane permeabilization in Escherichia coli ML-35p at 10 to 20 uM measured every 2 mins by beta-lactamase/nitrocefin hydrolysis assay; format: functional, organism-based
Escherichia coli [6] = assay: Induction of inner membrane permeabilization in Escherichia coli ML-35p at 10 to 100 uM measured every 2 mins by beta-galactosidase/ONPG hydrolysis assay; format: functional, organism-based
Escherichia coli [7] = assay: Induction of outer membrane permeabilization in Escherichia coli ML-35p at 40 to 100 uM measured every 2 mins by beta-lactamase/nitrocefin hydrolysis assay; format: functional, organism-based

Molecule CC1(C)S[C@@H]2[C@H](NC(=O)Cc3ccccc3)C(=O)N2[C@H]1C(=O)O [PENICILLIN G] has an MIC90 (Staphylococcus aureus) of 0.125 µM (≈ 0.0418 µg/mL), an MIC90 (Pseudomonas aeruginosa) of over 100 µM and an MIC90 (Escherichia coli [1]) of over 100 µM.

For GENTAMICIN, the MIC90 (Staphylococcus aureus) was 0.1 µM, the MIC90 (Pseudomonas aeruginosa) was 0.35 µM and the MIC90 (Escherichia coli [1]) was 1 µM.

Work on H-EQHSSGKSDV-OH yielded an MIC90 (Staphylococcus aureus) of over 100 µM, an MIC90 (Pseudomonas aeruginosa) of over 100 µM and an MIC90 (Escherichia coli [1]) of over 100 µM.

Molecule H-GKSDVRRWRSRY-OH has an MIC90 (Staphylococcus aureus) of over 100 µM, an MIC90 (Pseudomonas aeruginosa) of over 100 µM and an MIC90 (Escherichia coli [1]) of over 100 µM.

Work on H-KKSYVRRWRS-OH yielded an MIC90 (Staphylococcus aureus) of over 100 µM, an MIC90 (Pseudomonas aeruginosa) of over 100 µM and a hemolysis at 1 h, 100 µM [2] of -0.6%. It also gave an MIC90 (Escherichia coli [1]) of over 100 µM.

H-LWGTRSGIQP-OH gave an MIC90 (Staphylococcus aureus) of over 100 µM, an MIC90 (Pseudomonas aeruginosa) of over 100 µM and an MIC90 (Escherichia coli [1]) of over 100 µM.

In the case of H-QLKVDLWGTR-OH, the MIC90 (Staphylococcus aureus) is reported as over 100 µM, the MIC90 (Pseudomonas aeruginosa) is reported as over 100 µM and the MIC90 (Escherichia coli [1]) is reported as over 100 µM.

“H-QLKVDLWGTRSGIQPEQHSSGKSDVRRWRSRY-NH2 [Ixosin-B-amide]” showed an MIC90 (Staphylococcus aureus) of over 100 µM, an MIC90 (Pseudomonas aeruginosa) of over 100 µM and an MIC90 (Escherichia coli [1]) of 80 µM.

In the case of H-SGIQPEQHSS-OH, the MIC90 (Staphylococcus aureus) is reported as over 100 µM, the MIC90 (Pseudomonas aeruginosa) is reported as over 100 µM and the MIC90 (Escherichia coli [1]) is reported as over 100 µM.

Work on H-WKSDVRRWRSRY-OH yielded an MIC90 (Staphylococcus aureus) of over 100 µM, an MIC90 (Pseudomonas aeruginosa) of over 100 µM and a hemolysis at 1 h, 100 µM [2] of 0.3%. For the same molecule, the MIC90 (Escherichia coli [1]) was 64 µM.

In the case of H-WKSYVRRW-OH, the MIC90 (Staphylococcus aureus) is reported as 100 µM, the MIC90 (Pseudomonas aeruginosa) is reported as over 100 µM and the hemolysis at 1 h, 100 µM [2] is reported as 2%. It also gave an MIC90 (Escherichia coli [1]) of 64 µM.

Work on H-WKSYVRRWR-OH yielded an MIC90 (Staphylococcus aureus) of 64 µM, an MIC90 (Pseudomonas aeruginosa) of over 100 µM and a hemolysis at 1 h, 100 µM [2] of 1.1%. It also gave an MIC90 (Escherichia coli [1]) of 64 µM.

For H-WKSYVRRWRS-OH, the MIC90 (Staphylococcus aureus) was over 100 µM, the MIC90 (Pseudomonas aeruginosa) was over 100 µM and the hemolysis at 1 h, 100 µM [2] was -0.4%. For the same molecule, the MIC90 (Escherichia coli [1]) was 64 µM.

H-WKSYVRRWRSR-OH showed an MIC90 (Staphylococcus aureus) of 32 µM, an MIC90 (Pseudomonas aeruginosa) of over 100 µM and a hemolysis at 1 h, 100 µM [2] of -1.2%. For the same molecule, the MIC90 (Escherichia coli [1]) was 16 µM.

H-WKSYVRRWRSRY-OH showed an MIC90 (Staphylococcus aureus) of 32 µM, an MIC90 (Pseudomonas aeruginosa) of 100 µM and a hemolysis at 1 h, 100 µM [2] of 1.5%. For the same molecule, the MIC90 (Escherichia coli [1]) was 16 µM.

With H-WWSYVRRWRSR-OH the Activity (Escherichia coli [3]) was “inactive”, the Activity (Escherichia coli [4]) was “inactive” and the MIC90 (Staphylococcus aureus) was 8 µM. The Activity (Escherichia coli [5]) was “Active”, the MIC90 (Pseudomonas aeruginosa) was over 100 µM and the hemolysis at 1 h, 100 µM [2] was 3.4%. The Activity (Escherichia coli [6]) was “Active”, the Activity (Escherichia coli [7]) was “Active” and the MIC90 (Escherichia coli [1]) was 16 µM.
